According to US20060052369A1, “Compositions and methods relating to novel compounds and targets thereof” (The Regents of the University of Michigan, priority 2004, published 2006):
Where two headings read alike, the source gives them in different places.

What was measured:
[1] = target: T1, ATPase of sub-mitochondrial particles (mitochondrial F1Fo-ATPase) (Bos taurus, UniProt P13621); test: NADH-coupled ATP hydrolysis kinetics assay with sub-mitochondrial particles; format: biochemical, bovine; conditions: for mechanism of inhibition: ATP hydrolysis
T1 construct: from tissue; host or cells: sub-mitochondrial particles (SMPs)
Experimental: The mechanism of inhibition for ATP hydrolysis induced by Bz-423 and derivatives of Bz-423 was assayed using an NADH-coupled assay. The ATP hydrolytic activity of the sub-mitochondrial particles (hereinafter SMPs) was measured by coupling the production of ADP to the oxidation of NADH via the pyruvate kinase and lactate dehydrogenase reaction. Briefly, ATP hydrolysis SMPs (0.8 mg; 7.14 μg/well) were added to hydrolysis buffer (100 mM Tris-HCl, pH 8.0 at 25° C., 4 mM MgCl2, […], 0.2 mM EDTA) and vortexed. 125 μL of this suspension was added to each well of a 96-well plate containing 50× drug or DMSO vehicle control (1% DMSO, final). The 96-well plate was then placed at 30° C. in a Molecular Devices Versamax tunable microplate reader and allowed to incubate for 5 min. During this 5 min, a substrate-coupling mixture was prepared (containing X mM ATP, 0.2 mM NADH, 1 mM phosphoenolpyruvate (PEP), 2 U/mL pyruvate kinase (PK), and 2 U/mL lactate dehydrogenase (LDH) in hydrolysis buffer). The rate of hydrolysis was assayed over a range of ATP concentrations (0.1-4.0 mM) at each [Bz]. 125 μL of the substrate-coupling mixture was added to each well, and the rate of NADH oxidation was monitored for 10 min at 340 nm, 30° C. The measured decrease in absorbance over time (in OD/min) was converted to μmol ATP hydrolyzed/min/mg SMP (ε=6220). The velocity data was plotted versus [ATP] for each concentration of [Bz] […] To obtain Ki values and confirm that an uncompetitive model of inhibition was the best fit for the data, three-dimensional fits of the velocity, [ATP], and [Bz] were performed to solve for Vmax, Km, Ki, and Ki* [where Ki indicates Bz binding to the ATPase with the third catalytic site empty (mixed-type inhibition only), and Ki* indicates binding when all three sites have substrate bound (uncompetitive and mixed-type inhibition)]. The following equations were used: Competitive Inhibition: Vo=Vmax[S]/((1+[I]/Ki)Km+[S]) Uncompetitive Inhibition: Vo=Vmax[S]/((1+[I]/Ki*)[S]+Km) Mixed or Noncompetitive Inhibition: Vo=Vmax[S]/((1+[I]/Ki)Km+(1+[I]Ki*)[S])
The results for the o-tert-Butyl derivative of Bz-423 are shown in Table 1 and confirm that this derivative binds the ATPase with an uncompetitive binding mechanism, similar to Bz-423.

F1Fo-ATPase = F1Fo-ATPase (Homo sapiens, UniProt P05496); conditions: cited from earlier work
rodents = conditions: two daily doses; cited from earlier work
[2] = Ki*, Uncompetitive Inhibition model fit, binding when all three sites have substrate bound
[3] = Ki, Competitive Inhibition model fit

| SMILES | mechanism of inhibition [1] | Ki [1, 2] [µM] | Ki [1, 3] [µM] | Ki ([1]; Non-competitive Inhibition model fit, binding when all three sites have substrate bound, read-out: Ki*) [µM] | effect on Km ([1]; secondary plots of [Bz] versus Km) | effect on Vmax ([1]; secondary plots of [Bz] versus Vmax) | IC50 (F1Fo-ATPase) [µM] | LD50 (rodents) [mg/kg] |
| --- | --- | --- | --- | --- | --- | --- | --- | --- |
| CN1C(=O)C(Cc2ccc(OC(C)(C)C)cc2)N=C(c2ccc(O)cc2)c2cc(Cl)ccc21 (centres unmarked) [o-tert-Butyl] | uncompetitive | 12.7 ± 1.1 | 9.35 ± 2.4 | 12.7 ± 1.1 | decreased | decreased |  |  |
| CN1C(=O)C(Cc2ccc3ccccc3c2)N=C(c2ccc(O)cc2)c2cc(Cl)ccc21 (centres unmarked) [Bz-423] | uncompetitive | 19 ± 5.8 | 13.32 ± 0.1 |  |  |  |  |  |
| CC[C@H]1/C=C/C=C/C[C@@H](C)[C@H](O)[C@@](C)(O)C(=O)[C@@H](C)[C@H](O)[C@@H](C)C(=O)[C@@H](C)[C@H](O)[C@@H](C)/C=C/C(=O)O[C@@H]2[C@H](C)[C@H](CC1)O[C@]1(CC[C@H](C)[C@H](C[C@@H](C)O)O1)[C@H]2C [oligomycin] |  |  |  |  |  |  | 0.01 | 0.5 |
